Test system: incontinence-associated dermatitis (IAD) lesions induced with 5% pancreatin
Experiment: Incontinence-associated dermatitis (IAD) rabbit model, treatment of induced ear lesions
Assay type: in vivo
Conditions: rabbit ears; 1% clotrimazole, 1% hydrocortisone, 15% zinc oxide applied separately vs combination
Protocol: A rabbit model of IAD was also investigated. A combination cream (DGBC) was used to assess healing of an animal model of IAD compared with three active components of the cream. Twenty-six IAD lesions were induced and each lesion was treated with the individual components and the combination cream.
Rabbits were purchased from Charles River to be used for these experiments. […] Additionally, the animals' ears were used to maximize the sample size, effectively halving the number of animals required for the project. Twenty-two female rabbits were purchased: 2 for the pilot phase and 18 for phase 2 of the project. The study was conducted, and animals were housed at the AVC Research Facility as per CCAC guidelines. The experimental treatment utilized a therapeutic cream composed of 1.0% hydrocortisone, 1.0% clotrimazole and 15.0% zinc oxide (DGBC).
Induction of IAD. 1.Sedation of rabbit: Midazolam 0.5 mg/kg intramuscularly (IM) plus buprenorphine 0.03 mg/kg IM. Animals were assessed for sedation prior to gauze application. Animals requiring further sedation were sedated with ketamine 5 mg/kg IM. 2.Cleaning of the ear: The skin of both inner ears of each animal were cleaned with a 2×2 gauze saturated with 3 ml isopropyl alcohol and allowed to air dry for 5 minutes before applying the saturated gauze. The animal were held for a period of 5 min to ensure the ear was dry prior to application of IAD induction. 3.Application of gauze with 5% pancreatin to induce IAD: both ears of the animals were irritated as follows: Sterile 2×2 gauze was used as a carrier for the irritant. The gauze was saturated with 3 ml of pancreatin. 4.Wrapping of the ear: Both ears of each animal had gauze with pancreatin applied to the medial surface. […] 5.Monitoring period of 24 h: After 24 hours the bandage and occlusive dressing was removed and the ears assessed for sufficient irritation. […] Rabbits assessed as painful 1 hour after administration of gabapentin were treated with buprenorphine 0.03 mg/kg SC and be reassessed for pain in 1 hour. […]

Compound	effect in treating IAD compared with DGBC therapeutic cream
C[C@]12CCC(=O)C=C1CC[C@@H]1[C@@H]2[C@@H](O)C[C@@]2(C)[C@H]1CC[C@]2(O)C(=O)CO [hydrocortisone, 11β, 17α,21-Trihydroxypregn-4-ene-3,20-dione]	do not produce the same effect
[O]=[Zn] [zinc oxide, Zinc oxide]	do not produce the same effect
Clc1ccccc1C(c1ccccc1)(c1ccccc1)n1ccnc1 [clotrimazole, Clotrimazole]	do not produce the same effect

From patent publication US20250375474A1, “COMPOSITIONS FOR THE PREVENTION AND TREATMENT OF MOISTURE-ASSOCIATED SKIN DAMAGE” (SCOTIADERM INC., priority 2022, published 2025)
